Patent US9113629B2, “4-amino-6-(4-substituted-phenyl)-picolinates and 6-amino-2-(4-substituted-phenyl)-pyrimidine-4-carboxylates and their use as herbicides” (DOW AGROSCIENCES LLC, priority 2013, dated 2015)
Read-outs that look alike come from different tables or passages of the source.

Columns and labels:
[1] = test system: Key Grass and Sedge Weeds as well as Grass Crops; assay: Post-emergent Test II herbicidal activity (Table 6); type: in vivo; conditions: post-emergence, 336 h; for pest or weed control at 70 g/ha: 70 g ai/ha; for pest or weed control at 140 g/ha: 140 g ai/ha
In short: (§1)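 Scoring: visual, 0–100% injury at 14 d versus untreated. Treatment: overhead track spray, 187 L/ha, onto plants at the first–second true leaf stage. Growth: greenhouse, ~15 h light, 23–29 °C day, 22–28 °C night.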

[2] = test system: Key Broadleaf Weed and Crop Species; assay: Post-emergent Test II herbicidal activity (Table 5); type: in vivo; conditions: post-emergence, 336 h, 14 days after application; for pest or weed control at 70 g/ha: application rate 70 g ai/ha; for pest or weed control at 140 g/ha: application rate 140 g ai/ha
In short: as §1

[3] = CYPES: yellow nutsedge (Cyperus esculentus), read-out: Visual Growth Reduction (%) 14 Days After Application, CYPES
[4] = DIGSA: crabgrass (Digitaria sanguinalis), read-out: Visual Growth Reduction (%) 14 Days After Application, DIGSA
[5] = ECHCG: barnyardgrass (Echinochloa crus-galli), read-out: Visual Growth Reduction (%) 14 Days After Application, ECHCG
[6] = ORYSA: rice (Oryza sativa), crop, read-out: Visual Growth Reduction (%) 14 Days After Application, ORYSA
[7] = SETFA: giant foxtail (Setaria faberi), read-out: Visual Growth Reduction (%) 14 Days After Application, SETFA
[8] = SORVU: grain sorghum (Sorghum vulgare), read-out: Visual Growth Reduction (%) 14 Days After Application, SORVU
[9] = TRZSS (wheat, Triticum aestivum), crop, read-out: Visual Growth Reduction (%) 14 Days After Application, TRZSS
[10] = ZEAMX: maize, corn (Zea mays), crop, read-out: Visual Growth Reduction (%) 14 Days After Application, ZEAMX
[11] = ABUTH: velvetleaf (Abutilon theophrasti), read-out: Visual Growth Reduction (%) 14 Days After Application, ABUTH
[12] = AMARE: redroot pigweed (Amaranthus retroflexus), read-out: Visual Growth Reduction (%) 14 Days After Application, AMARE
[13] = BRSNN: oilseed-rape, canola (Brassica napus), read-out: Visual Growth Reduction (%) 14 Days After Application, BRSNN
[14] = CHEAL: lambsquarters (Chenopodium album), read-out: Visual Growth Reduction (%) 14 Days After Application, CHEAL
[15] = EPHHL: wild poinsettia (Euphorbia heterophylla), read-out: Visual Growth Reduction (%) 14 Days After Application, EPHHL
[16] = HELAN: sunflower (Helianthus annuus), read-out: Visual Growth Reduction (%) 14 Days After Application, HELAN
[17] = VIOTR: wild pansy (Viola tricolor), read-out: Visual Growth Reduction (%) 14 Days After Application, VIOTR

| SMILES | pest or weed control at 70 g/ha [1, 3] | pest or weed control at 140 g/ha [1, 3] | pest or weed control at 70 g/ha [1, 4] | pest or weed control at 140 g/ha [1, 4] | pest or weed control at 70 g/ha [1, 5] | pest or weed control at 140 g/ha [1, 5] | pest or weed control at 70 g/ha [1, 6] | pest or weed control at 140 g/ha [1, 6] | pest or weed control at 70 g/ha [1, 7] | pest or weed control at 140 g/ha [1, 7] | pest or weed control at 70 g/ha [1, 8] | pest or weed control at 140 g/ha [1, 8] | pest or weed control at 70 g/ha [1, 9] | pest or weed control at 140 g/ha [1, 9] | pest or weed control at 70 g/ha [1, 10] | pest or weed control at 140 g/ha [1, 10] | pest or weed control at 70 g/ha [2, 11] | pest or weed control at 140 g/ha [2, 11] | pest or weed control at 70 g/ha [2, 12] | pest or weed control at 140 g/ha [2, 12] | also measured |
| --- | --- | --- | --- | --- | --- | --- | --- | --- | --- | --- | --- | --- | --- | --- | --- | --- | --- | --- | --- | --- | --- |
| COC(=O)c1nc(-c2ccc([N+](=O)[O-])cc2)c(F)c(N)c1Cl [Compound 95, methyl 4-amino-3-chloro-5-fluoro-6-(4-nitrophenyl)picolinate] | 45 to 59% | 75 to 84% | 0 to 29% | 0 to 29% | 85 to 94% | 95 to 100% | 0 to 29% | 0 to 29% | 0 to 29% | 0 to 29% | 60 to 74% | 60 to 74% | 0 to 29% | 0 to 29% | 0 to 29% | 0 to 29% | 60 to 74% | 75 to 84% | 95 to 100% | 95 to 100% | pest or weed control at 70 g/ha [2, 13]: 0 to 29%; pest or weed control at 140 g/ha [2, 13]: 30 to 44%; pest or weed control at 70 g/ha [2, 14]: 95 to 100%; pest or weed control at 140 g/ha [2, 14]: 95 to 100%; pest or weed control at 70 g/ha [2, 15]: 95 to 100%; pest or weed control at 140 g/ha [2, 15]: 95 to 100%; pest or weed control at 70 g/ha [2, 16]: 95 to 100%; pest or weed control at 140 g/ha [2, 16]: 95 to 100%; pest or weed control at 70 g/ha [2, 17]: 0 to 29%; pest or weed control at 140 g/ha [2, 17]: 0 to 29% |
| COC(=O)c1nc(-c2ccc(Br)cc2)nc(N)c1OC [Compound 97] | 95 to 100% | 95 to 100% | 45 to 59% | 45 to 59% | 0 to 29% | 60 to 74% | 0 to 29% | 0 to 29% | 0 to 29% | 30 to 44% | 0 to 29% | 30 to 44% | 30 to 44% | 60 to 74% | 95 to 100% | 95 to 100% | 85 to 94% | 95 to 100% | 95 to 100% | 95 to 100% | pest or weed control at 70 g/ha [2, 13]: 85 to 94%; pest or weed control at 140 g/ha [2, 13]: 95 to 100%; pest or weed control at 70 g/ha [2, 14]: 85 to 94%; pest or weed control at 140 g/ha [2, 14]: 95 to 100%; pest or weed control at 70 g/ha [2, 15]: 95 to 100%; pest or weed control at 140 g/ha [2, 15]: 95 to 100%; pest or weed control at 70 g/ha [2, 16]: 75 to 84%; pest or weed control at 140 g/ha [2, 16]: 95 to 100%; pest or weed control at 70 g/ha [2, 17]: 60 to 74%; pest or weed control at 140 g/ha [2, 17]: 95 to 100% |
